Patent US9200051B2, “Peptide compound” (TAKEDA PHARMACEUTICAL COMPANY LIMITED, priority 2013, dated 2015)
Like-named read-outs stand apart in the source and are kept apart here. Square brackets hold non-standard residues; d marks the D form. Peptide text beside a SMILES is read from it. αMeY = C[C@](N)(Cc1ccc(O)cc1)C(=O)O; αMeF = C[C@](N)(Cc1ccccc1)C(=O)O; 4Pal = N[C@@H](Cc1ccncc1)C(=O)O; Aib = CC(C)(N)C(=O)O

Experiments:
Type in all cases: cell-based
human glucagon R = molecular target: T1, human glucagon R (Homo sapiens, UniProt P47871); experiment: Agonist activity against human glucagon R, CRE-luciferase reporter assay in hGlucagonR/CRE-LUC/CHO-K1 cells
T1 construct: expressed in transfected cells; host or cells: CHO-K1 (CRE-LUC/CHO-K1), plasmid hGlucagonR/pMSRα-neo
Description: (§1) Evaluation of agonist activity against human GIPR, human GLP-1R and human glucagon R using rise in intracellular cAMP concentration as index
(§2) The luciferase reporter gene having an upstream cAMP response sequence was introduced to CHO-K1 cells to construct CRE-LUC/CHO-K1 cells.
The human glucagon R gene having a sequence identical to the sequence of GenBank Accession No. NM_000160 was cloned into pMSRα-neo vector to prepare hGlucagonR/pMSRα-neo.
The plasmid hGlucagonR/pMSRα-neo obtained in (7) was introduced to the CRE-LUC/CHO-K1 cells obtained in (2) to obtain transformants. Next, a cell line induced to express luciferase, i.e., hGlucagonR/CRE-LUC/CHO-K1 cells, were selected from the obtained transformants by the addition of glucagon.
(§3) The hGIPR/CRE-LUC/CHO-K1 cells were inoculated at a cell density of 25 μL/well (5×10^4 cells/well) to a 384-well white plate (Corning), and cultured overnight in Ham F12 medium containing 10% fetal bovine serum, 100 U/mL penicillin and 100 μg/mL streptomycin in a CO2 incubator of 37° C. A medium containing a test compound was added at a concentration of 5 μL/well to the cells, and the resultant cells were incubated for 4 hours in a CO2 incubator of 37° C. to give the final concentration of 1 μM. PicaGene LT7.5 (Toyo Ink Co., Ltd.) was added thereto at a concentration of 30 μL/well, and the mixture was shaken with light shielded. After 30 minutes, the luciferase activity was measured using a plate reader Envision (PerkinElmer). The luciferase activity in the presence of 10 nM GIP was defined as 100%, and the luciferase activity from the addition of DMSO instead of the test compound was defined as 0%. The GIPR agonist activity was calculated with a rise in intracellular cAMP concentration as an index.
(§4) The glucagon R agonist activity was assayed in the same way as above using the hGlucagonR/CRE-LUC/CHO-K1 cells. The luciferase activity in the presence of 10 nM glucagon was defined as 100%, and the luciferase activity from the addition of DMSO instead of the test compound was defined as 0%. The glucagon agonist activity was calculated with a rise in intracellular cAMP concentration as an index.

human GIPR = molecular target: T2, human GIPR (Homo sapiens, UniProt P48546); experiment: Agonist activity against human GIPR, CRE-luciferase reporter assay (rise in intracellular cAMP) in hGIPR/CRE-LUC/CHO-K1 cells
T2 construct: expressed in transfected cells; host or cells: CHO-K1 (CRE-LUC/CHO-K1), plasmid hGIPR/pMSRα-neo
T2 sequence (P48546 22-466): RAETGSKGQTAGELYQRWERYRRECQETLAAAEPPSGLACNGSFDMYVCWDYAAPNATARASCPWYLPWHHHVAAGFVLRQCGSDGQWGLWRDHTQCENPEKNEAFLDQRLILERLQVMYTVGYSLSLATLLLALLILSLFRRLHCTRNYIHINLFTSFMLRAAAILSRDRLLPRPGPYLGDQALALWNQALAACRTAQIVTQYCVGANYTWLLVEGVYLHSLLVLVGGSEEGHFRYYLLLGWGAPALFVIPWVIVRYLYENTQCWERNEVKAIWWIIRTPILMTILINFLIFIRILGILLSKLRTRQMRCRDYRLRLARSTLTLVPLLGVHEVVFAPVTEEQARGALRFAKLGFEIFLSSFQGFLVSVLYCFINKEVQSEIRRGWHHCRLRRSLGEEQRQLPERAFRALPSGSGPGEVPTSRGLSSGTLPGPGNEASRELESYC
Description: as §1
The human GIPR gene having a sequence identical to the sequence of GenBank Accession No. U39231 was cloned into pMSRα-neo vector to prepare hGIPR/pMSRα-neo.
as §2
The plasmid hGIPR/pMSRα-neo obtained in (1) was introduced to the CRE-LUC/CHO-K1 cells obtained in (2) to obtain transformants. Next, a cell line induced to express luciferase, i.e., hGIPR/CRE-LUC/CHO-K1 cells, were selected from the obtained transformants by the addition of GIP.
as §3

human GLP-1R = molecular target: T3, human GLP-1R (Homo sapiens, UniProt P43220); experiment: Agonist activity against human GLP-1R, CRE-luciferase reporter assay in hGLP-1R/CRE-luc/CHO-K1 cells
T3 construct: expressed in transfected cells; host or cells: CHO-K1, plasmids hGLP-1/pIRESneo3 and Cre-luc(Zeo)
Description: as §1
Four copies of the cAMP response sequence and the Zeocin resistance gene were introduced to pGL3(R2.2)-Basic Vector (Promega) to construct Cre-luc(Zeo) reporter plasmid.
The human GLP-1R gene having a sequence identical to the sequence of GenBank Accession No. NM_002062 was cloned into pIRESneo3 vector to prepare hGLP-1/pIRESneo3.
The Cre-luc(Zeo) obtained in (3) and the plasmid hGLP-1/pIRESneo3 obtained in (5) were introduced to CHO-K1 cells to obtain transformants. Next, a cell line induced to express luciferase, i.e., hGLP-1R/CRE-luc/CHO-K1 cells, were selected from the obtained transformants by the addition of GLP-1.
as §3
as §4, with “The GLP-1R” for “The glucagon R”, “the hGLP-1R/CRE-luc/CHO-K1” for “the hGlucagonR/CRE-LUC/CHO-K1”, “nM GLP-1” for “nM glucagon”, “The GLP-1R” for “The glucagon”

T3 sequence (P43220 24-463): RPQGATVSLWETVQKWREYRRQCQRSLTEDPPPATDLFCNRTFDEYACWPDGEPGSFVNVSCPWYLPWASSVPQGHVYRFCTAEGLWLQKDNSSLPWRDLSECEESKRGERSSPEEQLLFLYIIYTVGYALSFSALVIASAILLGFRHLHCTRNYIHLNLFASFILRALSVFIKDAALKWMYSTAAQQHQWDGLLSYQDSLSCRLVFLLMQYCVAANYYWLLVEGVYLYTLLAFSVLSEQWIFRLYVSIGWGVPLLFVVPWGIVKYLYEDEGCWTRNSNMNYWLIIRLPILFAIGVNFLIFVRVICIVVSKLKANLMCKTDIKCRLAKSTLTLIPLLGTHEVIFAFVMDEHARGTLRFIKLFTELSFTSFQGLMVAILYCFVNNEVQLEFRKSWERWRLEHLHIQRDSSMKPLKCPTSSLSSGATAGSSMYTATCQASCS
T1 sequence (P47871 26-477): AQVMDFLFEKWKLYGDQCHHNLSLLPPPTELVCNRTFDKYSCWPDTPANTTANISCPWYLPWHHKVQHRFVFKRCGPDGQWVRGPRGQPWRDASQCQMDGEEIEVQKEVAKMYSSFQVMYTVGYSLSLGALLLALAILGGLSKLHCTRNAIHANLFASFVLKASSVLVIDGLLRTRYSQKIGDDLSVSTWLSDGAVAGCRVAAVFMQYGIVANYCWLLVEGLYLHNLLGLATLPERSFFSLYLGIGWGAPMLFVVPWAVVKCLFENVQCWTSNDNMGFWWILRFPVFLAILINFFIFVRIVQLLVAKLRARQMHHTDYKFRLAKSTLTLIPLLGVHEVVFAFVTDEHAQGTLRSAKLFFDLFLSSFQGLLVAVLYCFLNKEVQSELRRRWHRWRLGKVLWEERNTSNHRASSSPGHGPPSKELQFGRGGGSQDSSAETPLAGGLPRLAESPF

| SMILES | EC50 (human glucagon R; hGlucagonR/CRE-LUC/CHO-K1 cells, 4 hours incubation, 10 nM glucagon = 100%, read-out: Agonist activity (EC50) hGCGR) [nM] | EC50 (human GIPR; hGIPR/CRE-LUC/CHO-K1 cells, 4 hours incubation, 10 nM GIP = 100%, read-out: Agonist activity (EC50) hGIPR) [nM] | EC50 (human GLP-1R; hGLP-1R/CRE-luc/CHO-K1 cells, 4 hours incubation, 10 nM GLP-1 = 100%, read-out: Agonist activity (EC50) hGLP-1R) [nM] | EC50 (human glucagon R) [nM] | EC50 (human GIPR) [nM] | EC50 (human GLP-1R) [nM] |
| --- | --- | --- | --- | --- | --- | --- |
| CC[C@H](C)[C@H](NC(=O)C(C)(C)NC(=O)[C@H](Cc1ccc(O)cc1)NC(=O)[C@H](CC(=O)O)NC(=O)[C@H](CO)NC(=O)[C@@H](NC(=O)[C@](C)(Cc1ccccc1)NC(=O)[C@@H](NC(=O)CNC(=O)[C@H](CCC(=O)O)NC(=O)C(C)(C)NC(=O)[C@H](Cc1ccc(O)cc1)NC(C)=O)[C@@H](C)O)[C@@H](C)O)C(=O)NC(C)(C)C(=O)N[C@@H](CC(C)C)C(=O)N[C@@H](CC(=O)O)C(=O)N[C@@H](CCCCN)C(=O)N[C@@H](CCC(N)=O)C(=O)N[C@@H](C)C(=O)N[C@@H](CCC(N)=O)C(=O)N[C@@H](C)C(=O)N[C@@H](CCC(=O)O)C(=O)N[C@@H](Cc1ccccc1)C(=O)N[C@H](C(=O)N[C@@H](CCCCN)C(=O)N[C@@H](Cc1c[nH]c2ccccc12)C(=O)N[C@@H](CC(C)C)C(=O)N[C@@H](CC(C)C)C(=O)N[C@@H](CCCCN)C(=O)NCC(=O)NCC(=O)N1CCC[C@H]1C(=O)N[C@@H](CO)C(=O)N[C@@H](CO)C(=O)NCC(=O)N[C@@H](C)C(=O)N1CCC[C@H]1C(=O)N1CCC[C@H]1C(=O)N1CCC[C@H]1C(=O)N[C@@H](CO)C(=O)N[C@@H](CCCCN)C(N)=O)C(C)C [Example 18] (Ac-Y[Aib]EGT[αMeF]TSDY[Aib]I[Aib]LDKQAQAEFVKWLLKGGPSSGAPPPSK-NH2) | > 1000 | 0.027 | 0.13 |  |  |  |
| CC(C)C[C@H](NC(=O)[C@H](CC(C)C)NC(=O)[C@H](Cc1c[nH]c2ccccc12)NC(=O)[C@H](CCCCN)NC(=O)[C@@H](NC(=O)[C@H](Cc1ccccc1)NC(=O)[C@H](CCC(=O)O)NC(=O)[C@H](C)NC(=O)[C@H](CCC(N)=O)NC(=O)[C@H](C)NC(=O)[C@H](CCC(N)=O)NC(=O)[C@H](CCCCN)NC(=O)[C@H](CC(=O)O)NC(=O)[C@H](CC(C)C)NC(=O)C(C)(C)NC(=O)[C@H](Cc1ccncc1)NC(=O)C(C)(C)NC(=O)[C@H](Cc1ccc(O)cc1)NC(=O)[C@H](CC(=O)O)NC(=O)[C@H](CO)NC(=O)[C@@H](NC(=O)[C@](C)(Cc1ccccc1)NC(=O)[C@@H](NC(=O)CNC(=O)[C@H](CCC(=O)O)NC(=O)C(C)(C)NC(=O)[C@@H](N)Cc1ccc(O)cc1)[C@@H](C)O)[C@@H](C)O)C(C)C)C(=O)N[C@@H](CCCCN)C(=O)NCC(=O)NCC(=O)N1CCC[C@H]1C(=O)N[C@@H](CO)C(=O)N[C@@H](CO)C(=O)NCC(=O)N[C@@H](C)C(=O)N1CCC[C@H]1C(=O)N1CCC[C@H]1C(=O)N1CCC[C@H]1C(=O)N[C@@H](CO)C(=O)N[C@@H](CCCCN)C(N)=O [Example 12] (H-Y[Aib]EGT[αMeF]TSDY[Aib][4Pal][Aib]LDKQAQAEFVKWLLKGGPSSGAPPPSK-NH2) |  |  |  | > 1000 | 0.0072 | 0.014 |
| CC(C)C[C@H](NC(=O)[C@H](CC(C)C)NC(=O)[C@H](Cc1c[nH]c2ccccc12)NC(=O)[C@H](CCCCN)NC(=O)[C@@H](NC(=O)[C@H](Cc1ccccc1)NC(=O)[C@H](CCC(=O)O)NC(=O)[C@H](C)NC(=O)[C@H](CCC(N)=O)NC(=O)[C@H](C)NC(=O)[C@H](CCC(N)=O)NC(=O)[C@H](CCCCN)NC(=O)[C@H](CC(=O)O)NC(=O)[C@H](CC(C)C)NC(=O)C(C)(C)NC(=O)[C@H](C)NC(=O)C(C)(C)NC(=O)[C@H](Cc1ccc(O)cc1)NC(=O)[C@H](CC(=O)O)NC(=O)[C@H](CO)NC(=O)[C@@H](NC(=O)[C@](C)(Cc1ccccc1)NC(=O)[C@@H](NC(=O)CNC(=O)[C@H](CCC(=O)O)NC(=O)C(C)(C)NC(=O)[C@@H](N)Cc1ccc(O)cc1)[C@@H](C)O)[C@@H](C)O)C(C)C)C(=O)N[C@@H](CCCCN)C(=O)NCC(=O)NCC(=O)N1CCC[C@H]1C(=O)N[C@@H](CO)C(=O)N[C@@H](CO)C(=O)NCC(=O)N[C@@H](C)C(=O)N1CCC[C@H]1C(=O)N1CCC[C@H]1C(=O)N1CCC[C@H]1C(=O)N[C@@H](CO)C(=O)N[C@@H](CCCCN)C(N)=O [Example 10] (H-Y[Aib]EGT[αMeF]TSDY[Aib]A[Aib]LDKQAQAEFVKWLLKGGPSSGAPPPSK-NH2) |  |  |  | > 1000 | 0.0054 | 0.0083 |
| CC[C@H](C)[C@H](NC(=O)C(C)(C)NC(=O)[C@H](Cc1ccc(O)cc1)NC(=O)[C@H](CC(=O)O)NC(=O)[C@H](CO)NC(=O)[C@@H](NC(=O)[C@](C)(Cc1ccccc1)NC(=O)[C@@H](NC(=O)CNC(=O)[C@H](CCC(=O)O)NC(=O)C(C)(C)NC(=O)[C@@H](N)Cc1ccc(O)cc1)[C@@H](C)O)[C@@H](C)O)C(=O)N[C@@](C)(Cc1ccc(O)cc1)C(=O)N[C@@H](CC(C)C)C(=O)N[C@@H](CC(=O)O)C(=O)N[C@@H](CCCCN)C(=O)N[C@@H](CCC(N)=O)C(=O)N[C@@H](C)C(=O)N[C@@H](CCC(N)=O)C(=O)N[C@@H](C)C(=O)N[C@@H](CCC(=O)O)C(=O)N[C@@H](Cc1ccccc1)C(=O)N[C@H](C(=O)N[C@@H](CCCCN)C(=O)N[C@@H](Cc1c[nH]c2ccccc12)C(=O)N[C@@H](CC(C)C)C(=O)N[C@@H](CC(C)C)C(=O)N[C@@H](CCCCN)C(=O)NCC(=O)NCC(=O)N1CCC[C@H]1C(=O)N[C@@H](CO)C(=O)N[C@@H](CO)C(=O)NCC(=O)N[C@@H](C)C(=O)N1CCC[C@H]1C(=O)N1CCC[C@H]1C(=O)N1CCC[C@H]1C(=O)N[C@@H](CO)C(=O)N[C@@H](CCCCN)C(N)=O)C(C)C [Example 17] (H-Y[Aib]EGT[αMeF]TSDY[Aib]I[αMeY]LDKQAQAEFVKWLLKGGPSSGAPPPSK-NH2) |  |  |  | > 1000 | 0.014 | 0.018 |
